In this assay the target is T1, PKB-PIF fusion protein (protein kinase B) (Homo sapiens, UniProt P31751).
T1 construct: PIF (fusion partner); made in house
Put plainly: Measurement of PKB kinase inhibitory activity (IC50). The assay is classed as biochemical. As to conditions: 0.6 nM enzyme, 30 μM ATP/γ33P-ATP, 25 μM AKTide-2T substrate; read-out: PKB IC50. How it is done: The reaction is allowed to proceed for 20 minutes before addition of excess orthophosphoric acid to quench activity. The reaction mixture is transferred to a phosphocellulose filter plate where the peptide binds and the unused ATP is washed away. After washing, scintillant is added and the incorporated activity measured by scintillation counting.

Molecules are shown by their SMILES.

T1 sequence (P31751 with tags, fused parts or gaps limits assumed): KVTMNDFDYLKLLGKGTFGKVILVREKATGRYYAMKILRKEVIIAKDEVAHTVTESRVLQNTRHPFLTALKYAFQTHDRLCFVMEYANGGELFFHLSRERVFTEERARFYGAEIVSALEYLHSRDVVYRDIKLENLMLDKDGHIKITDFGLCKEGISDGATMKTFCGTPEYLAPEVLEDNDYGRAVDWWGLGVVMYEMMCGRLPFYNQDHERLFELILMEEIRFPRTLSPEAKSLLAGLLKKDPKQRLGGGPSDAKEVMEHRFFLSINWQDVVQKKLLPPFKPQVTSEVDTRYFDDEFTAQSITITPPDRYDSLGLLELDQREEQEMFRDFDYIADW

With `CNCC(c1ccc(Cl)cc1)c1ccc(-c2cn[nH]c2)cc1` (stereo in doubt) [Example 22, {2-(4-Chloro-phenyl)-2-[4-(1H-pyrazol-4-yl)-phenyl]-ethyl}-methyl-amine (R)], the half-inhibitory concentration (IC50) is under 1000 nM.
As for `N#CC(Cc1ccccc1)c1cccc(-c2cn[nH]c2)c1` (stereo not drawn) [Example 2, 3-Phenyl-2-[3-(1H-pyrazol-4-yl)-phenyl]-propionitrile], the figure is under 5000 nM; as for `Cc1n[nH]c(C)c1-c1ccc(C(CN)c2ccccc2)cc1` (stereo not drawn) [Example 3, 2-[4-(3,5-Dimethyl-1H-pyrazol-4-yl)-phenyl]-2-phenyl-ethylamine], under 5000 nM; as for `NCC(Cc1ccccc1)c1cccc(-c2cn[nH]c2)c1` (stereo not drawn) [Example 6, 3-Phenyl-2-[3-(1H-pyrazol-4-yl)-phenyl]-propylamine], under 5000 nM.
`CNCCC(c1ccc(Cl)cc1)c1ccc(-c2cn[nH]c2)cc1` (stereo not drawn) [Example 8, {3-(4-Chloro-phenyl)-3-[4-(1H-pyrazol-4-yl)-phenyl]-propyl}-methyl-amine]: the 50% inhibitory concentration (IC50) is under 1000 nM.
Regarding `CNCCC(c1ccc(-c2cn[nH]c2)cc1)c1ccc(F)c(F)c1` (stereo not drawn) [Example 9, {3-(3,4-Difluoro-phenyl)-3-[4-(1H-pyrazol-4-yl)-phenyl]-propyl}-methyl-amine], the half-maximal inhibitory concentration (IC50) is under 1000 nM.
Consider `CNCCC(c1ccc(-c2cn[nH]c2)cc1)c1cccc(Cl)c1` (stereo not drawn) [Example 10, {3-(3-Chloro-phenyl)-3-[4-(1H-pyrazol-4-yl)-phenyl]-propyl}-methyl-amine], for which the IC50 was under 1000 nM.
For the compound `NC(=O)CC(c1ccc(Cl)cc1)c1ccc(-c2cn[nH]c2)cc1` (stereo not drawn) [Example 11, 3-(4-Chloro-phenyl)-3-[4-(1H-pyrazol-4-yl)-phenyl]-propionamide], the half-inhibitory concentration (IC50) is under 5000 nM.
For `NCCC(c1ccc(Cl)cc1)c1ccc(-c2cn[nH]c2)cc1` (stereo not drawn) [Example 12, 3-(4-Chloro-phenyl)-3-[4-(1H-pyrazol-4-yl)-phenyl]-propylamine], the IC50 was under 1000 nM.
Consider `NCCC(c1ccc(-c2cn[nH]c2)cc1)c1ccc(Cl)c(Cl)c1` (stereo not drawn) [Example 13, 3-(3,4-Dichloro-phenyl)-3-[4-(1H-pyrazol-4-yl)-phenyl]-propylamine], for which the IC50 was under 1000 nM.
On to `Clc1ccc(C2(c3ccc(-c4cn[nH]c4)cc3)CCNCC2)cc1` [Example 14, 4-(4-Chloro-phenyl)-4-[4-(1H-pyrazol-4-yl)-phenyl]-piperidine], for which the half-maximal inhibitory concentration (IC50) is under 1000 nM.
For the compound `COc1ccc(C2(c3ccc(-c4cn[nH]c4)cc3)CCNCC2)cc1` [Example 15, 4-(4-Methoxy-phenyl)-4-[4-(1H-pyrazol-4-yl)-phenyl]-piperidine], the concentration for half-maximal inhibition (IC50) was under 1000 nM.
To `CN1CCC(c2ccc(Cl)cc2)(c2ccc(-c3cn[nH]c3)cc2)CC1` [Example 16, 4-(4-Chloro-phenyl)-1-methyl-4-[4-(1H-pyrazol-4-yl)-phenyl]-piperidine] belongs under 1000 nM.
`c1ccc(C2(c3ccc(-c4cn[nH]c4)cc3)CCNCC2)cc1` [Example 17, 4-Phenyl-4-[4-(1H-pyrazol-4-yl)-phenyl]-piperidine]: the IC50 was under 1000 nM.
As for `Cc1n[nH]c(C)c1-c1ccc(C2(c3ccccc3)CCNCC2)cc1` [Example 18, 4-[4-(3,5-Dimethyl-1H-pyrazol-4-yl)-phenyl]-4-phenyl-piperidine], the figure is under 5000 nM; as for `CN(C)CCC(c1ccc(-c2cn[nH]c2)cc1)c1ccccn1` (stereo not drawn) [Example 19, Dimethyl-{3-[4-(1H-pyrazol-4-yl)-phenyl]-3-pyridin-2-yl-propyl}-amine], under 5000 nM; as for `CN(C)CC(c1ccc(Cl)cc1)c1ccc(-c2cn[nH]c2)cc1` (stereo not drawn) [Example 20, {2-(4-Chloro-phenyl)-2-[4-(1H-pyrazol-4-yl)-phenyl]-ethyl}-dimethyl-amine], under 1000 nM.
With `CNCC(c1ccc(Cl)cc1)c1ccc(-c2cn[nH]c2)cc1` (stereo not drawn) [Example 21, {2-(4-Chloro-phenyl)-2-[4-(1H-pyrazol-4-yl)-phenyl]-ethyl}-methyl-amine], the IC50 was under 1000 nM.
Turning to `Clc1ccc(C(CN2CCOCC2)c2ccc(-c3cn[nH]c3)cc2)cc1` (stereo not drawn) [Example 24, 4-{2-(4-Chloro-phenyl)-2-[4-(1H-pyrazol-4-yl)-phenyl]-ethyl}-morpholine], the concentration for half-maximal inhibition (IC50) is under 5000 nM.
In the case of `Clc1ccc(C(CN2CCCC2)c2ccc(-c3cn[nH]c3)cc2)cc1` (stereo not drawn) [Example 25, 4-{4-[1-(4-Chloro-phenyl)-2-pyrrolidin-1-yl-ethyl]-phenyl}-1H-pyrazole], the 50% inhibitory concentration (IC50) is under 1000 nM.
In the case of `CC(C)NCC(c1ccc(Cl)cc1)c1ccc(-c2cn[nH]c2)cc1` (stereo not drawn) [Example 26, {2-(4-Chloro-phenyl)-2-[4-(1H-pyrazol-4-yl)-phenyl]-ethyl}-isopropyl-amine], the half-inhibitory concentration (IC50) is under 1000 nM.
As for `CN(C)CC(c1ccccc1)c1ccc(-c2cn[nH]c2)cc1` (stereo not drawn) [Example 27, Dimethyl-{2-phenyl-2-[4-(1H-pyrazol-4-yl)-phenyl]-ethyl}-amine], the IC50 was under 1000 nM.
Regarding `CN(C)CC(c1ccc(-c2cn[nH]c2)cc1)c1ccc(-c2cn[nH]c2)cc1` [Example 28, {2,2-Bis-[4-(1H-pyrazol-4-yl)-phenyl]-ethyl}-dimethyl-amine], the 50% inhibitory concentration (IC50) was under 1000 nM.
`CNCC(c1ccc(-c2cn[nH]c2)cc1)c1ccc(-c2cn[nH]c2)cc1` [Example 29, {2,2-Bis-[4-(1H-pyrazol-4-yl)-phenyl]-ethyl}-methyl-amine]: the IC50 is under 1000 nM.
To `NC(=O)C(c1ccc(Cl)cc1)c1ccc(-c2cn[nH]c2)cc1` (stereo not drawn) [Example 32, 2-(4-Chloro-phenyl)-2-[4-(1H-pyrazol-4-yl)-phenyl]-acetamide] belongs under 5000 nM; to `Clc1ccc(C(CN2CCNCC2)c2ccc(-c3cn[nH]c3)cc2)cc1` (stereo not drawn) [Example 33, 1-{2-(4-Chloro-phenyl)-2-[4-(1H-pyrazol-4-yl)-phenyl]-ethyl}-piperazine], under 1000 nM.
In the case of `Clc1ccc(C(CN2CCCCC2)c2ccc(-c3cn[nH]c3)cc2)cc1` (stereo not drawn) [Example 34, 1-{2-(4-Chloro-phenyl)-2-[4-(1H-pyrazol-4-yl)-phenyl]-ethyl}-piperidine], the concentration for half-maximal inhibition (IC50) was under 1000 nM.
For `Clc1ccc(C(CN2CCC2)c2ccc(-c3cn[nH]c3)cc2)cc1` (stereo not drawn) [Example 35, 4-{4-[2-Azetidin-1-yl-1-(4-chloro-phenyl)-ethyl]-phenyl}-1H-pyrazole], the IC50 was under 1000 nM.
With `NC(Cc1ccc(-c2cn[nH]c2)cc1)c1ccccc1` (stereo not drawn) [Example 36, 1-Phenyl-2-[4-(1H-pyrazol-4-yl)-phenyl]-ethylamine], the IC50 is under 5000 nM.
To `CNC(=O)C(c1ccc(Cl)cc1)c1ccc(-c2cn[nH]c2)cc1` (stereo not drawn) [Example 40, 2-(4-Chloro-phenyl)-N-methyl-2-[4-(1H-pyrazol-4-yl)-phenyl]-acetamide] belongs under 50000 nM; to `CNC(=O)C(c1ccc(-c2cn[nH]c2)cc1)c1ccc(-c2cn[nH]c2)cc1` [Example 41, N-Methyl-2,2-bis-[4-(1H-pyrazol-4-yl)-phenyl]-acetamide], under 50000 nM; to `Clc1ccc(C(CCN2CCCC2)c2ccc(-c3cn[nH]c3)cc2)cc1` (stereo not drawn) [Example 50, 4-{4-[1-(4-Chloro-phenyl)-3-pyrrolidin-1-yl-propyl]-phenyl}-1H-pyrazole], under 1000 nM.
On to `Clc1ccc(C(CCN2CCC2)c2ccc(-c3cn[nH]c3)cc2)cc1` (stereo not drawn) [Example 51, 4-{4-[3-Azetidin-1-yl-1-(4-chloro-phenyl)-propyl]-phenyl}-1H-pyrazole], for which the concentration for half-maximal inhibition (IC50) is under 1000 nM.

For the origin of these results see patent US8541461B2 (Astex Therapeutics Limited, priority 2005, dated 2013).
